Molecules are shown by their SMILES. Several values for one entry are separate records, joined by “and”; a condition that tells them apart may be missing. Identical values can stand only once. Toxic doses and inconclusive results are not listed.

The test system of this assay is CD2F1 mice, L1210 leukemia ip, survival T/C. Put plainly: NCI In Vivo Anticancer Drug Screen. Data for tumor model L1210 Leukemia (intraperitoneal) in CD2F1 (CDF1) mice. Particulars: higher = longer survival. The procedure, abridged:
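Antitumor effect is scored in animals hosting a serially transplanted tumor. Values compare compound-dosed animals against vehicle-only controls as a simple quotient.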

The mark [1] stands for this setting: endpoint: mean survival time, dose: 100.0 mg/kg/injection, schedule: Q04DX002 (ip), vehicle: saline.
The mark [2] stands for this setting: endpoint: mean survival time, dose: 100.0 mg/kg/injection, schedule: Q01DX009 (ip), vehicle: saline with Tween-80.
Setting [3] is: endpoint: mean survival time, dose: 200.0 mg/kg/injection, schedule: Q01DX009 (ip), vehicle: saline with Tween-80.
Setting [4] is: endpoint: mean survival time, dose: 400.0 mg/kg/injection, schedule: Q01DX009 (ip), vehicle: saline with Tween-80.

In the case of `CCn1cnccc1=O`, the T/C reads like this: under setting [1], 92 % of control; (endpoint: mean survival time, dose: 200.0 mg/kg/injection, schedule: Q04DX002 (ip), vehicle: saline) 109 % of control; (endpoint: mean survival time, dose: 300.0 mg/kg/injection, schedule: Q04DX002 (ip), vehicle: saline) 115 % of control; (endpoint: mean survival time, dose: 450.0 mg/kg/injection, schedule: Q04DX002 (ip), vehicle: saline) 117 % of control.
Regarding `CCS(=O)(=O)/C=C(\I)C(C)(C)C`, the T/C reads like this: under setting [2], 97 % of control; (endpoint: mean survival time, dose: 100.0 mg/kg/injection, schedule: Q04DX003 (ip), vehicle: saline with Tween-80) 98 % of control; under setting [3], 102 % of control; (endpoint: mean survival time, dose: 200.0 mg/kg/injection, schedule: Q04DX003 (ip), vehicle: saline with Tween-80) 102 % of control; under setting [4], 100 % of control; (endpoint: mean survival time, dose: 400.0 mg/kg/injection, schedule: Q04DX003 (ip), vehicle: saline with Tween-80) 95 % of control.
Regarding `CCCCCCCCCCCCCCCC(=O)OCC1OC(N2C=CC(=O)CC2=O)C(O)C1O` (centres undefined), the T/C was 174 % of control (endpoint: median survival time, dose: 13.0 mg/kg/injection, schedule: Q01DX009 (ip), vehicle: saline + alcohol); 188 % of control (endpoint: median survival time, dose: 20.0 mg/kg/injection, schedule: Q01DX009 (ip), vehicle: saline + alcohol); 174 % of control (endpoint: median survival time, dose: 30.0 mg/kg/injection, schedule: Q01DX009 (ip), vehicle: saline + alcohol).
With `O=C1C2C3CCC(C3)C2N1Cc1ccccc1` (centres undefined), the T/C is 93 % of control (endpoint: mean survival time, dose: 100.0 mg/kg/injection, schedule: Q04DX002 (ip), vehicle: other); 96 % of control (endpoint: mean survival time, dose: 200.0 mg/kg/injection, schedule: Q04DX002 (ip), vehicle: other); 96 % of control (endpoint: mean survival time, dose: 400.0 mg/kg/injection, schedule: Q04DX002 (ip), vehicle: other).
Take `O=C1C=CC(=O)N1c1ccc(Br)cc1` (tested in a mixture with another compound): the T/C is 98 % of control (endpoint: mean survival time, dose: 100.0 mg/kg/injection, schedule: Q01DX009 (ip), vehicle: acetone) and 95 % of control (endpoint: mean survival time, dose: 200.0 mg/kg/injection, schedule: Q01DX009 (ip), vehicle: acetone).
Turning to `COC(=O)CCC(=O)c1ccc(C)cc1`, the T/C is 94 % of control (endpoint: mean survival time, dose: 100.0 mg/kg/injection, schedule: Q04DX003 (ip), vehicle: acetone); 104 % of control (endpoint: mean survival time, dose: 200.0 mg/kg/injection, schedule: Q04DX003 (ip), vehicle: acetone); 98 % of control (endpoint: mean survival time, dose: 400.0 mg/kg/injection, schedule: Q04DX003 (ip), vehicle: acetone).
For `CN(C)[C@@H]1C(=O)C(C(=O)NCNc2nc3n[nH]nc3c(=O)[nH]2)=C(O)[C@@]2(O)C(=O)C3=C(O)c4c(O)cccc4[C@@](C)(O)[C@H]3C[C@@H]12`, the T/C (endpoint: mean survival time, dose: 50.0 mg/kg/injection, schedule: Q01DX009 (ip), vehicle: saline with Tween-80) was 117 % of control; the T/C under setting [2] is 123 % of control; the T/C under setting [4] was 94 % of control.
For the molecule `O=C(NC(=S)Nc1cccc(O)c1)c1cccc(Br)c1`, the T/C reads like this: under setting [2], 96 % of control; under setting [3], 96 % of control; under setting [4], 97 % of control.
For the molecule `NC(CNC(=O)CBr)C(=O)O` (centres undefined), the T/C reads like this: (endpoint: median survival time, dose: 3.0 mg/kg/injection, schedule: Q01DX009 (ip), vehicle: water) 111 % of control; (endpoint: median survival time, dose: 6.0 mg/kg/injection, schedule: Q01DX009 (ip), vehicle: water) 122 % of control and 124 % of control; (endpoint: median survival time, dose: 12.5 mg/kg/injection, schedule: Q01DX009 (ip), vehicle: water) 122 % of control; (endpoint: median survival time, dose: 24.0 mg/kg/injection, schedule: Q01DX009 (ip), vehicle: water) 156 % of control; (endpoint: median survival time, dose: 25.0 mg/kg/injection, schedule: Q01DX009 (ip), vehicle: water) 120 % of control; (endpoint: median survival time, dose: 48.0 mg/kg/injection, schedule: Q01DX009 (ip), vehicle: water) 156 % of control.
As to `O=[N+]([O-])c1ccccc1O`, the T/C reads like this: (endpoint: mean survival time, dose: 100.0 mg/kg/injection, schedule: Q04DX003 (ip), vehicle: Klucel (hydroxypropylcellulose) (HPC)) 97 % of control; (endpoint: mean survival time, dose: 200.0 mg/kg/injection, schedule: Q04DX003 (ip), vehicle: Klucel (hydroxypropylcellulose) (HPC)) 97 % of control; (endpoint: mean survival time, dose: 400.0 mg/kg/injection, schedule: Q04DX003 (ip), vehicle: Klucel (hydroxypropylcellulose) (HPC)) 96 % of control.
With `CC1(C)NC(=O)C2CC21C` (centres undefined), the T/C (endpoint: mean survival time, dose: 25.0 mg/kg/injection, schedule: Q04DX002 (ip), vehicle: saline) was 96 % of control; the T/C (endpoint: mean survival time, dose: 50.0 mg/kg/injection, schedule: Q04DX002 (ip), vehicle: saline) is 112 % of control; the T/C under setting [1] is 93 % of control.
`COc1ccccc1NC(=O)Oc1ccc2ccccc2c1`: the T/C is, setting by setting: (endpoint: mean survival time, dose: 100.0 mg/kg/injection, schedule: Q04DX002 (ip), vehicle: saline with Tween-80) 103 % of control; (endpoint: mean survival time, dose: 200.0 mg/kg/injection, schedule: Q04DX002 (ip), vehicle: saline with Tween-80) 91 % of control.
Regarding `CN(CCO)C1=C(N2CC2)C(=O)C(N(C)CCO)=C(N2CC2)C1=O`, the T/C (endpoint: mean survival time, dose: 0.5 mg/kg/injection, schedule: Q01DX009 (ip), vehicle: saline) was 115 % of control and 117 % of control; the T/C (endpoint: mean survival time, dose: 1.0 mg/kg/injection, schedule: Q01DX009 (ip), vehicle: saline) was 155 % of control; the T/C (endpoint: mean survival time, dose: 1.5 mg/kg/injection, schedule: Q01DX009 (ip), vehicle: saline) is 201 % of control and 211 % of control.

(Values after PubChem BioAssay AID256 (DTP/NCI, 2004).)
